Several values for one entry are separate records, joined by “and”; a condition that tells them apart may be missing. Equal values may be shown once. Read-outs that look alike come from different tables or passages of the source.
Legend:
IMP-1 = target: T1, IMP-1 (Serratia marcescens, UniProt P52699); assay: biochemical; settings: for IC50: IC50 (μM) class B IMP-1, nitrocefin 100 μM, 50 mM Hepes pH 7.3
T1 construct: made in house; host or cells: E. coli (pCIP4 plasmid from Dr. M. Galleni)
Experimental: (§1) Compounds of the present application were evaluated as inhibitors of two Class B β-lactamases (IMP-1 and VIM-2) and two Class D β-lactamases OXA-10 and OXA-45).
IMP-1 was overexpressed in E. coli using the pCIP4 plasmid encoding IMP-1 which was obtained from Dr. M. Galleni, Université de Liège, B-4000 Liege, Belgium, and was purified as described by Laraki, N. et al., Antimicrob. Agents Chemother. 1999 43, 902-906.
(§2) Two methods were used for measurement of β-lactamase activity, based on the use of the substrate nitrocefin. The first was carried out in a cuvette (final volume 1 ml, 25° C.) with the aid of a Cary 5 spectrophotometer, and second was with the use of a Molecular Devices Spectramax 190 96 well plate reader (final volume 100 μl, 30° C.).
(§3) All assays were performed in the appropriate buffer for the enzyme: (i) IMP-1, VIM-2: 50 mM Hepes pH 7.3, 1 μg/ml BSA, 1 μM ZnSO4; (ii) OXA-45: 100 mM Na Phosphate/25 mM NaCO3 pH 7.0, 1 μg/ml BSA; and (iii) OXA-10: 100 mM Na Phosphate/25 mM NaCO3 pH 7.0. Enzyme concentrations were chosen so that a reasonable rate of reaction was observed. Inhibitors were dissolved in DMSO, with the final concentration of DMSO in the assay being 1%. Nitrocefin was dissolved in DMSO and diluted in 50 mM Hepes pH 7.3 with the final concentration in the assay being 100 μM. The enzyme was allowed to react with the inhibitor for a predetermined time followed by addition of substrate to initiate the reaction, which was monitored for an increase in absorbance at 482 nm. IC50 values were determined by plotting percent loss of initial activity vs log inhibitor concentration. Controls were run to ensure that there was minimal loss of activity with DMSO (<10%). When inhibition by DMSO was noted, 0.5 M NaCl was added to stabilize the enzyme.

VIM-2 = target: T2, VIM-2 (Escherichia coli, UniProt Q5U7L7); assay: biochemical; format: biochemical
T2 construct: made in house; host or cells: E. coli DH10B (pNOR,2001 plasmid from Dr. P. Nordmann)
Experimental: as §1
VIM-2 was overexpressed in E. coli (DH10B) containing the pNOR,2001 plasmid, encoding VIM-2, which was provided by Dr. P. Nordmann, Universite de Paris, and was purified as described by Poirel et al., Antimicrob. Agents Chemother. 2000, 44, 891-897.
as §2, §3

OXA-10 = target: T3, OXA-10 (Pseudomonas aeruginosa, UniProt P14489); assay: biochemical; format: biochemical
T3 construct: made in house; host or cells: E. coli (pEt24a(+) plasmid from Dr. S. Mobashery)
Experimental: as §1
OXA-10 was overexpressed in E. coli using the pEt24a(+) plasmid, encoding OXA-10, which was provided by Dr. S. Mobashery, University of Notre Dame, and was purified as described by Golemi et al., J. Am. Chem. Soc. 2000, 122, 6132-6133.
as §2, §3

OXA-45 = OXA-45 (Pseudomonas aeruginosa, UniProt Q7WZC7); assay: β-lactamase inhibition assay with nitrocefin substrate, OXA-45; format: biochemical
Experimental: as §1
OXA-45 was a gift from Dr. J. Spencer, University of Bristol, and had been prepared and purified as described by Toleman, M. A. et al., Antimicrob. Agents Chemother. 2003, 47, 2859-2863.
as §2, §3

[1] = test system: Pseudomonas aeruginosa strain 81-11963 (produces metallo β-lactamase VIM-2); assay: Agar dilution MIC, synergy with pipericillin, P. aeruginosa; format: cell-based; settings: P. aeruginosa strain 81-11963 (VIM-2), compound at ¼ the concentration of the antibiotic, 18 h
Experimental: (§4) Such compounds were expected to enhance the potency of a clinically useful β-lactam antibiotic against clinical isolates of human pathogenic bacteria which are highly resistant to β-lactam antibiotics. Certain β-lactamase inhibitors were tested to determine whether or not they would have a synergistic effect on the antibacterial activity of pipericillin against β-lactam antibiotic resistant bacterial clinical isolates using the Agar Dilution Method.
(§5) Bacterial colonies were taken from overnight blood agar plates, and sterile saline was inoculated to make a 0.5 McFarland suspension inoculum and further diluted such that the 10^4 CFU spots were delivered to the MHA (Oxoid) surface. Inhibitor samples were dissolved in DMSO and administered at a pipericillin:compound ratio of 4:1 (wt/wt). The plates were incubated at 35° C. and read after 18 h of incubation. MICs were measured by agar dilution on Mueller-Hinton II agar (BD Microbiology Systems, Cockeysville, Md., USA), as recommended by the NCCLS (National Committee for Clinical Laboratory Standards. (2003).Performance Standards for Antimicrobial Susceptibility Testing.)

[2] = test system: Stenotrophomonas maltophilia strain 92-00626 (produces metallo β-lactamase L1); assay: Agar dilution MIC, synergy with pipericillin, S. maltophilia; format: cell-based; settings: S. maltophilia strain 92-00626 (L1), compound at ¼ the concentration of the antibiotic, 18 h
Experimental: as §4, §5

[3] = nitrocefin 100 μM, 100 mM Na Phosphate/25 mM NaCO3 pH 7.0, read-out: IC50 (μM) class D OXA-45

Sequence of OXA-45 (Q7WZC7 entry or part of it): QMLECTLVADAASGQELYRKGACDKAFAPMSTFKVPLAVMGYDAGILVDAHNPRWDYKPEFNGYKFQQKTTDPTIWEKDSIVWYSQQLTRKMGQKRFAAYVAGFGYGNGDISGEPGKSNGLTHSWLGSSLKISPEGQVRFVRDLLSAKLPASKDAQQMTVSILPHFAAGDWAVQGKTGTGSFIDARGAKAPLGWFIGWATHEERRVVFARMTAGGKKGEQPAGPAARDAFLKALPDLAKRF
T3 sequence (P14489 20-266): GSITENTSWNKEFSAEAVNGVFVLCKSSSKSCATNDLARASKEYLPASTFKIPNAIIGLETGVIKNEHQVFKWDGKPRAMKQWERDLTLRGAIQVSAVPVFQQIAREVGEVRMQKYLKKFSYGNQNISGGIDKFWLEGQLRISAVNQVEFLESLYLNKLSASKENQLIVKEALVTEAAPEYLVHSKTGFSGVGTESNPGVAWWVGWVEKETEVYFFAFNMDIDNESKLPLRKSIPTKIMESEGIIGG
T1 sequence (P52699 19-246 limits assumed): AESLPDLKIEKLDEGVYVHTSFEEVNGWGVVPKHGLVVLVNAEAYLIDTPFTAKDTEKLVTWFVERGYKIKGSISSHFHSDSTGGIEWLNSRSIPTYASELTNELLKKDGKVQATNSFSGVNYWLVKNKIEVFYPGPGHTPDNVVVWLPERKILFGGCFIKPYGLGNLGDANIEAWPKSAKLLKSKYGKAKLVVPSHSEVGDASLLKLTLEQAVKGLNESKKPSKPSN

CC(C)(C)c1ccc(C(=O)N/N=C/c2c3ccccc3cc3ccccc23)cc1 [Compound 1, N′-(Anthracen-9-ylmethylene)-4-t-butylbenzohydrazide]
IC50 (IMP-1): 0.9 µM and 0.91 µM

O=C(N/N=C/c1ccccc1O)c1ccc2ccccc2c1 [Compound 2, N′-(2-Hydroxybenzylidene)-2-naphthohydrazide]
inhibition of IMP-1 (in words) (IMP-1): inhibited
IC50 (IMP-1): 38.3 µM
IC50 (VIM-2): 35.1 µM
inhibition of VIM-2 (in words) (VIM-2): inhibited
IC50 (OXA-10): 15.2 µM
inhibition of OXA-10 (in words) (OXA-10): inhibited
IC50 (OXA-45): 1.8 µM
inhibition of OXA-45 (in words) (OXA-45): inhibited

O=C(N/N=C/c1ccccc1O)c1cc2ccccc2cc1O [Compound 3, 3-Hydroxy-N′-(2-hydroxybenzylidene)-2-naphthohydrazide]
inhibition of IMP-1 (in words) (IMP-1): inhibited
IC50 (IMP-1): 8.3 µM
IC50 (VIM-2): 18.2 µM
inhibition of VIM-2 (in words) (VIM-2): inhibited
IC50 (OXA-10): 3.9 µM
inhibition of OXA-10 (in words) (OXA-10): inhibited
inhibition of OXA-45 (in words) (OXA-45): inhibited
IC50 (OXA-45; [3]): 0.25 µM
diminution in the MIC value found for pipericillin [1]: greater than 4 fold

CC(C)(C)c1ccc(C(=O)N/N=C/c2c(O)ccc3ccccc23)cc1 [Compound 4, 4-t-Butyl-N′-((2-hydroxynaphthalen-1-yl)methylene)benzohydrazide]
inhibition of IMP-1 (in words) (IMP-1): inhibited
IC50 (IMP-1): 3 µM
IC50 (VIM-2): 9 µM
inhibition of VIM-2 (in words) (VIM-2): inhibited
IC50 (OXA-10): 1.7 µM
inhibition of OXA-10 (in words) (OXA-10): inhibited
inhibition of OXA-45 (in words) (OXA-45): inhibited
IC50 (OXA-45; [3]): 1.7 µM

CC(C)(C)c1ccc(C(=O)N/N=C/c2ccccc2O)cc1 [Compound 5, 4-t-Butyl-N′-(2-hydroxybenzylidene)benzohydrazide]
inhibition of IMP-1 (in words) (IMP-1): inhibited
IC50 (IMP-1): 9 µM
IC50 (VIM-2): 18 µM
inhibition of VIM-2 (in words) (VIM-2): inhibited
IC50 (OXA-10): 12.8 µM
inhibition of OXA-10 (in words) (OXA-10): inhibited
inhibition of OXA-45 (in words) (OXA-45): inhibited
IC50 (OXA-45; [3]): 28 µM
diminution in the MIC value found for pipericillin [2]: greater than 4 fold

O=C(N/N=C/c1c2ccccc2cc2ccccc12)c1cc2ccccc2cc1O [Compound 6, N′-(Anthracen-9-ylmethylene)-3-hydroxy-2-naphthohydrazide]
IC50 (IMP-1): 1.02 µM
IC50 (VIM-2): 12.3 µM
IC50 (OXA-10): 2.8 µM
IC50 (OXA-45; [3]): 0.57 µM

O=C(N/N=C/c1cccc(Oc2ccccc2)c1)c1cc2ccccc2cc1O [Compound 7, 3-Hydroxy-N-(3-phenoxybenzylidene)-2-naphthohydrazide]
IC50 (IMP-1): 7 µM
IC50 (VIM-2): 8.5 µM
IC50 (OXA-10): 1.8 µM
IC50 (OXA-45): 0.56 µM

CC(C)(C)c1ccc(C(=O)N/N=C/c2cccc(Oc3ccccc3)c2)cc1 [Compound 8, 4-t-Butyl-N′-(3-phenoxybenzylidene)benzohydrazide]
IC50 (IMP-1): 6.7 µM
IC50 (VIM-2): 23.9 µM
IC50 (OXA-10): 10.3 µM
IC50 (OXA-45): 4.3 µM

CC(C)(C)c1ccc(C(=O)N/N=C/c2ccccc2OCc2ccccc2)cc1 [Compound 10, N′-(2-(Benzyloxy)benzylidene)-4-t-butylbenzohydrazide]
IC50 (IMP-1): 4.7 µM
IC50 (VIM-2): > 10 µM
IC50 (OXA-10): > 10 µM
IC50 (OXA-45; [3]): > 10 µM

CC(C)(C)c1ccc(C(=O)N/N=C/c2ccc3c(c2)OCO3)cc1 [Compound 11, N′-(Benzo[d][1,3]dioxol-5-ylmethylene)-4-t-butylbenzohydrazide]
IC50 (IMP-1): > 10 µM
IC50 (VIM-2): > 10 µM
IC50 (OXA-10): > 10 µM
IC50 (OXA-45): > 10 µM

CC(C)(C)c1ccc(C(=O)N/N=C/c2ccccc2[N+](=O)[O-])cc1 [Compound 12, 4-t-Butyl-N′-(2-nitrobenzylidene)benzohydrazide]
IC50 (IMP-1): > 10 µM
IC50 (VIM-2): > 10 µM
IC50 (OXA-10): > 10 µM
IC50 (OXA-45; [3]): > 10 µM

O=C(N/N=C/c1ccccc1O)c1cccnc1 [Compound 13, N′-(2-Hydroxybenzylidene)nicotinohydrazide]
IC50 (IMP-1): > 100 µM
IC50 (VIM-2): > 100 µM
IC50 (OXA-10): > 100 µM
IC50 (OXA-45): > 100 µM

O=C(N/N=C/c1ccccc1O)c1ccncc1 [Compound 14, N′-(2-Hydroxybenzylidene)isonicotinohydrazide]
IC50 (IMP-1): > 100 µM
IC50 (VIM-2): > 100 µM
IC50 (OXA-10): > 100 µM
IC50 (OXA-45; [3]): > 100 µM

O=C(N/N=C/c1ccccc1O)c1ccccc1O [Compound 15, 2-Hydroxy-N′-(2-hydroxybenzylidene)benzohydrazide]
IC50 (IMP-1): > 40 µM
IC50 (VIM-2): > 40 µM
IC50 (OXA-10): > 40 µM
IC50 (OXA-45; [3]): > 40 µM
